Here are results for seven compounds from ChEMBL document CHEMBL1201862, “PubChem BioAssay data set” (2004).

Test systems include SK-MEL-28; OVCAR-4; K562; HCC 2998; SN12C; UO-31; RPMI-8226; LOX IMVI; OVCAR-8; EKVX; SK-MEL-5; SNB-75; KM12; T47D; MDA-MB-435; CAKI-1; NCI-H226; SK-OV-3; A498; DMS-114.
Common to all, as to assay: NCI anticancer screen, dose series, 48 h

Where “and” joins values, the source holds several entries; their conditions need not be identical. Equal entries are not always repeated.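 Tested at 5 concentrations; 48 h exposure; 96-well plates; endpoints linearly interpolated, else capped at highest concentration. GI50 = concentration required for 50% inhibition of growth.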 Calls of active or inactive are those of the source. Cut-off read from the data, not from the text of the source: active = GI50 up to about 1.1 µM and inactive = higher.

Regarding `CCNc1nnc(-c2nsc3ccccc23)s1`, the GI50 with SK-MEL-28 was 88.3 µM (inactive); in the assay with OVCAR-4 it was 86.5 µM (inactive); with K562, > 100 µM (inactive); in the assay with HCC 2998, 67.6 µM (inactive); in the assay on SN12C, > 100 µM (inactive); in the assay with UO-31, 24.8 µM (inactive). The GI50 is 65.3 µM (inactive) with RPMI-8226; > 100 µM (inactive) in the assay on LOX IMVI; 57.8 µM (inactive) with OVCAR-8; 51.9 µM (inactive) with EKVX; > 100 µM (inactive) in the assay with SK-MEL-5; 8.83 µM (inactive) with SNB-75. Moreover, the GI50 with KM12 was 59.7 µM (inactive).
As to `CN(C)c1ccc(/C=C2\C[C@H]3[C@@H]4CCc5cc(O)ccc5[C@H]4CC[C@]3(C)C2=O)cc1`, the GI50 in the assay on T47D, in the assay on SK-MEL-28, with OVCAR-4, with MDA-MB-435, in the assay on K562 and in the assay on CAKI-1 was > 100 µM (inactive) throughout. The GI50 was > 100 µM (inactive) with HCC 2998; > 100 µM (inactive) with UO-31; > 100 µM (inactive) with RPMI-8226; 25.1 µM (inactive) in the assay on NCI-H226; > 100 µM (inactive) in the assay with LOX IMVI; 95.1 µM (inactive) with OVCAR-8. The GI50 in the assay with EKVX is 32.5 µM (inactive); in the assay on SK-OV-3 it was > 100 µM (inactive); with SK-MEL-5, > 100 µM (inactive); in the assay with SNB-75, 28.9 µM (inactive); with A498, 98.2 µM (inactive); with KM12 it was > 100 µM (inactive).
As for `COc1cc2c3cc1Oc1c(OC)c(OC)cc4c1C(Cc1ccc(cc1)Oc1cc(ccc1O)CC3N(C)CC2)N(C)CC4` (stereo not drawn), the GI50 in the assay on T47D is 11.3 µM (inactive); in the assay on OVCAR-4, 12.4 µM (inactive) and 14.1 µM (inactive); in the assay on MDA-MB-435 it was 8.09 µM (inactive); in the assay with K562 it was 1.49 µM (inactive) and 1.71 µM (inactive); in the assay with DMS-114, 11.9 µM (inactive); in the assay with CAKI-1, 14.3 µM (inactive) and 16.9 µM (inactive). Moreover, the GI50 was 21.7 µM (inactive) and 15.1 µM (inactive) in the assay with SN12C; 4.9 µM (inactive) and 8.28 µM (inactive) in the assay with UO-31; 6.64 µM (inactive) in the assay with RPMI-8226; 16.8 µM (inactive) and 18.9 µM (inactive) with NCI-H226; 24.9 µM (inactive) and 13.1 µM (inactive) with EKVX; 13.4 µM (inactive) and 25.6 µM (inactive) with SK-OV-3. Further, the GI50 with SNB-75 is 11.1 µM (inactive) and 11.8 µM (inactive); with A498, 16.1 µM (inactive); with KM12 it was 11.9 µM (inactive) and 11.4 µM (inactive).
Turning to `Cc1c2cnccc2c(C)c2c1c1ccccc1n2CCCCCCCl`, the GI50 was > 48.4 µM (inactive) with SK-MEL-28; > 10.5 µM (inactive) with OVCAR-4; 18.1 µM (inactive) in the assay with K562; > 40.3 µM (inactive) with DMS-114; > 50 µM (inactive) in the assay with CAKI-1; > 46.8 µM (inactive) in the assay on HCC 2998. The GI50 in the assay on SN12C is > 50 µM (inactive); in the assay on UO-31, > 47.5 µM (inactive); in the assay on RPMI-8226 it was 13.2 µM (inactive); in the assay on NCI-H226, 22.5 µM (inactive); with LOX IMVI it was 30.4 µM (inactive); in the assay on OVCAR-8, 26 µM (inactive). Besides, the GI50 in the assay on EKVX was > 50 µM (inactive); in the assay with SK-OV-3 it was > 50 µM (inactive); in the assay on SK-MEL-5, > 50 µM (inactive); in the assay with SNB-75 it was > 31.6 µM (inactive); with A498, > 50 µM (inactive); with KM12, 29.9 µM (inactive).
Regarding `COc1cccc(NC(=O)CC(=O)NNCC(=O)Nc2nnc(-c3ccc(N(CCC#N)S(=O)(=O)c4ccccc4)cc3)s2)c1`, the GI50 with SK-MEL-28 was 55.7 µM (inactive); with OVCAR-4, 65.8 µM (inactive); with K562, 37.6 µM (inactive); with DMS-114, 41.6 µM (inactive); in the assay with CAKI-1, > 100 µM (inactive); in the assay on HCC 2998 it was > 100 µM (inactive). Besides, the GI50 in the assay with SN12C is 89.7 µM (inactive); with UO-31, 47.4 µM (inactive); with RPMI-8226 it was 66.4 µM (inactive); in the assay with NCI-H226, > 100 µM (inactive); with LOX IMVI, 75.7 µM (inactive); in the assay on OVCAR-8, > 100 µM (inactive). For the same compound, the GI50 in the assay on EKVX was 41 µM (inactive); with SK-OV-3 it was 30.5 µM (inactive); in the assay on SK-MEL-5, 37.6 µM (inactive); in the assay on KM12, 63.5 µM (inactive).
`COc1ccc(/C(Cl)=C(\C=O)c2ccc(Cl)c(Cl)c2)cc1OC`: the GI50 in the assay with SK-MEL-28 was 13.4 µM (inactive); in the assay on K562, 3.87 µM (inactive); in the assay on DMS-114, 12.4 µM (inactive); in the assay with CAKI-1, 5.08 µM (inactive); in the assay with SN12C it was 4.28 µM (inactive); in the assay on UO-31, 7.33 µM (inactive). For the same compound, the GI50 is 2.08 µM (inactive) with RPMI-8226; 4.84 µM (inactive) with NCI-H226; 3.37 µM (inactive) in the assay with LOX IMVI; 4.02 µM (inactive) with OVCAR-8; 9.53 µM (inactive) with EKVX; 38.5 µM (inactive) in the assay on SK-OV-3. The figures for the GI50 in the assay with SK-MEL-5, in the assay with SNB-75 and with A498 were 12.8 µM (inactive), 0.294 µM (active) and 15.2 µM (inactive), respectively.
Take `CCc1cc(=O)n(/C(C)=C/c2ccccc2)n1C`: the GI50 in the assay with T47D, in the assay with SK-MEL-28, in the assay on OVCAR-4, in the assay with MDA-MB-435, with K562 and in the assay with CAKI-1 was > 100 µM (inactive) each time. Further, the GI50 with HCC 2998, in the assay with SN12C, in the assay on UO-31, in the assay with RPMI-8226, in the assay on NCI-H226 and in the assay on LOX IMVI was > 100 µM (inactive) throughout. For the same compound, the GI50 in the assay with OVCAR-8, in the assay with EKVX, with SK-OV-3, in the assay with SK-MEL-5, in the assay on SNB-75 and in the assay with KM12 was > 100 µM (inactive) in each case.
